This note sets out measurements from ChEMBL document CHEMBL3045786, “Insect antifeedant activity of tetranortriterpenoids from the Rutales. A perusal of structural relations” (2002).

For the experiment, the system named is Spodoptera litura. The experiment can be described thus: Feeding index against larvae of Spodoptera litura in castor leaves =.
`C/C=C(\C)C(=O)O[C@H]1CC(=O)[C@@]2(C)CO[C@H]3[C@H]4O[C@@H]5C[C@@H](c6ccoc6)C(C)=C5[C@@]4(C)[C@H](CC(=O)OC)[C@]1(C)[C@@H]32` [3-OXOSALANNIN] yielded a PFI of 42.9%. `C/C=C(\C)C(=O)O[C@@H]1[C@@H]2OC[C@]3(C)[C@H](O)C[C@H](O)[C@@]4(CO[C@H](C(=O)OC)[C@H]4[C@]1(C)[C@]14O[C@@]1(C)[C@H]1C[C@@H]4O[C@@H]4OC=C[C@@]41O)[C@@H]23` [3-TIGLOYL MELIACARPIN]: the PFI was found to be 13.3%.

On to `CC(=O)O[C@@H]1C[C@@H](O)[C@@]2(C)[C@@H](C[C@@H](OC(C)=O)[C@@]3(C)C4=CC[C@@H](C5=C[C@@H](CC(C)C)O[C@@H]5O)[C@]4(C)C[C@@H](O)[C@@H]32)C1(C)C` [3R-ACETOXY-1R-HYDROXYAZADIRACHTOL], for which the PFI came out at 4.2%.

In the case of `COC(=O)C[C@H]1[C@]2(C)C3=C(C)[C@H](c4ccoc4)C[C@H]3O[C@@H]2C(=O)[C@@H]2[C@]1(C)C(=O)C=C[C@@]2(C)C(=O)OC` [6-OXONIMBIN], the PFI is on record as 42.3%.

For the compound `CC(=O)O[C@@H]1C(=O)[C@H]2C(C)(C)C(=O)C=C[C@]2(C)[C@H]2CC[C@]3(C)C(=CC[C@H]3c3ccoc3)[C@]12C` [6-OXONIMONOL], the PFI turned out to be 44.2%. In turn, `C/C=C(\C)C(=O)O[C@H]1C[C@@H](OC(C)=O)[C@@]2(C(=O)OC)CO[C@H]3[C@@H](O)[C@@](C)([C@]45O[C@@]4(C)[C@H]4C[C@@H]5O[C@@H]5OC=C[C@@]54O)[C@@H]4[C@H](O)OC[C@@]14[C@@H]32` [AZADIRACHTIN H] gave a PFI of 30.5%.

For `C/C=C(\C)C(=O)O[C@H]1C[C@@H](OC(C)=O)[C@@]2(C)CO[C@@H]3[C@@H](O)[C@@](C)([C@]45O[C@@]4(C)[C@H]4C[C@@H]5O[C@@H]5OC=C[C@@]54O)[C@H]4[C@]1(CO[C@]4(O)C(=O)OC)[C@@H]32` [AZADIRACHTIN-D], the PFI is reported as 28.9%. `C/C=C(\C)C(=O)O[C@H]1C[C@@H](OC(C)=O)[C@@]2(C)CO[C@H]3[C@@H](O)[C@@](C)([C@]45O[C@@]4(C)[C@H]4C[C@@H]5O[C@@H]5OC=C[C@@]54O)[C@@H]4[C@H](O)OC[C@@]14[C@@H]32` [AZADIRACHTIN-I] returned a PFI of 32.2%. Compound `COC(=O)[C@H]1OC[C@]23[C@@H]1[C@](C)([C@]14O[C@@]1(C)[C@H]1C[C@@H]4O[C@@H]4OC=C[C@@]41O)[C@H](O)[C@@H]1OC[C@](C(=O)OC)([C@H](O)C[C@@H]2O)[C@H]13` [AZADIRACHTOL] returned a PFI of 6.1%.

Compound `C/C=C(\C)C(=O)O[C@H]1C[C@@H](OC(C)=O)[C@@]2(C(=O)OC)CO[C@H]3[C@@H](O)[C@@](C)([C@]45O[C@@]4(C)[C@H]4C[C@@H]5O[C@@H]5OC=C[C@@]54O)[C@H]4[C@]1(CO[C@]4(O)C(=O)OC)[C@@H]32` [AZADIRACTIN] came in with a PFI of 27.5%. For `CC(=O)O[C@@H]1C[C@H]2C(C)(C)C(=O)C=C[C@]2(C)[C@H]2CC[C@]3(C)C(=CC(=O)[C@H]3C3=CC(O)OC3=O)[C@@]21C` (stereo partly drawn) [AZADIRADIONE PP], the PFI came to 34.7%.

Consider `CC(=O)O[C@@H]1C[C@H]2C(C)(C)C(=O)C=C[C@]2(C)[C@H]2CC[C@]3(C)C(=CC(=O)[C@H]3c3ccoc3)[C@@]21C` [AZADIRADIONE], for which the PFI turned out to be 35.5%.

Take `CC(=O)O[C@@H]1C[C@H]2C(C)(C)C(=O)C=C[C@]2(C)[C@H]2CC[C@]3(C)C(=CC[C@H]3c3ccoc3)[C@@]21C` [AZADIRONE]: the PFI worked out at 48.3%. In the case of `CC(=O)OC1=C2C(C)(C)C(=O)C=C[C@]2(C)[C@H]2CC[C@@]3(C)[C@H](c4ccoc4)C[C@H]4O[C@]43[C@]2(C)C1=O` [CEDRELONE ACETATE], the PFI is recorded as 55%. As for `CC1(C)C(=O)[C@H]2O[C@H]2[C@@]2(C)C1=C(O)C(=O)[C@]1(C)[C@@H]2CC[C@@]2(C)[C@H](c3ccoc3)C[C@H]3O[C@]321` [CEDRELONE EPOXIDE], the PFI is reported as 43.5%. The figure for `CC1(C)C(=O)C=C[C@@]2(C)C1=C(O)C(=O)[C@]1(C)[C@@H]2CC[C@@]2(C)[C@H](C3=CC(O)OC3=O)C[C@H]3O[C@]321` (stereo partly drawn) [CEDRELONE PP-OH] is 22.4%; for `CC1(C)C(=O)C=C[C@@]2(C)C1=C(O)C(=O)[C@]1(C)[C@@H]2CC[C@@]2(C)[C@H](C3=CO[C@@H]4O[C@H]34)C[C@H]3O[C@]321` [CEDRELONE-22-EPOXIDE] it is 44.2%; for `CC(=O)OC1=C2C(C)(C)C(=O)[C@H]3O[C@H]3[C@]2(C)[C@H]2CC[C@@]3(C)[C@H](c4ccoc4)C[C@H]4O[C@]43[C@]2(C)C1=O` [CEDRELONEEPOXIDE ACETATE] it is 53.2%. Compound `COC1=C2C(C)(C)C(=O)C=C[C@]2(C)[C@H]2CC[C@@]3(C)[C@H](c4ccoc4)C[C@H]4O[C@]43[C@]2(C)C1=O` [CEDRELONEMETHYL ETHER] came in with a PFI of 56%. The figure for `CC1(C)C(=O)C=C[C@@]2(C)C1=C(O)C(=O)[C@]1(C)[C@@H]2CC[C@@]2(C)[C@H](c3ccoc3)C[C@H]3O[C@]321` [CEDRELONE] is 51.5%. `COC(=O)C[C@H]1[C@]2(C)C3=C(C)[C@H](c4ccoc4)C[C@H]3O[C@@H]2[C@H](O)[C@@H]2[C@]1(C)C(=O)C=C[C@@]2(C)C(=O)OC` [DEACETYLNIMBIN] returned a PFI of 34.7%. Turning to `C/C=C(\C)C(=O)O[C@H]1C[C@@H](O)[C@@]2(C)CO[C@H]3[C@H]4O[C@@H]5C[C@@H](c6ccoc6)C(C)=C5[C@@]4(C)[C@H](CC(=O)OC)[C@]1(C)[C@@H]32` [DESACETYL SALANNIN], the PFI is reported as 44.67%.

Compound `C/C=C(\C)C(=O)O[C@H]1C[C@@H](O)[C@@]2(C)CO[C@H]3[C@H]4O[C@@H]5C[C@@H](C6=CC(O)OC6=O)C(C)=C5[C@@]4(C)[C@H](CC(=O)OC)[C@]1(C)[C@@H]32` (stereo partly drawn) [DESACETYL SALANNOLIDE] came in with a PFI of 28.44%.

In turn, `COC(=O)C[C@H]1[C@]2(C)C3=C(C)[C@H](C4=CCOC4=O)C[C@H]3O[C@@H]2[C@H](O)[C@@H]2[C@]1(C)C(=O)C=C[C@@]2(C)C(=O)OC` [DESACETYLNIMBIN MW] yielded a PFI of 35.1%. `C/C=C(\C)C(=O)O[C@H]1C[C@@H](O)[C@@]2(C)CO[C@H]3[C@H]4O[C@@H]5C[C@@H](C6=CCOC6=O)C(C)=C5[C@@]4(C)[C@H](CC(=O)OC)[C@]1(C)[C@@H]32` [DESACETYLSALANNOBUTYROLACTONE] showed a PFI of 40.35%.

On to `CC1(C)C(=O)C=C[C@@]2(C)C1=C(O)C(=O)[C@@]1(C)C3=CC[C@@H](c4ccoc4)[C@]3(C)CC[C@@H]12` [DESEPOXYCEDRELONE], for which the PFI was 55.3%. In the case of `COC1=C2C(C)(C)C(=O)CC[C@]2(C)[C@H]2CC[C@@]3(C)[C@H](c4ccoc4)C[C@H]4O[C@]43[C@]2(C)C1=O` [DIHYDROCEDRELONE METHYL ETHER], the PFI is listed as 56.5%.

For `CC1(C)C(=O)CC[C@@]2(C)C1=C(O)C(=O)[C@]1(C)[C@@H]2CC[C@@]2(C)[C@H](c3ccoc3)C[C@H]3O[C@]321` [DIHYDROCEDRELONE], the PFI is given as 50.5%. The compound `CC(=O)O[C@@H]1C[C@H]2C(C)(C)C(=O)C=C[C@]2(C)[C@H]2CC[C@@]3(C)[C@H](C4=CC(O)OC4=O)C(=O)[C@H]4O[C@]43[C@@]21C` (stereo partly drawn) [EPOXY AZADIRADIONE PP] gave a PFI of 29.4%. For the compound `CC(=O)O[C@@H]1[C@H](O)[C@H]2C(C)(C)C(=O)C=C[C@]2(C)[C@H]2CC[C@@]3(C)[C@H](c4ccoc4)C[C@H]4O[C@]43[C@]12C` [EPOXY NIMONOL], the PFI is recorded as 32%. As to `CC(=O)O[C@@H]1C[C@H]2C(C)(C)C(=O)C=C[C@]2(C)[C@H]2CC[C@@]3(C)[C@H](c4ccoc4)C(=O)[C@H]4O[C@]43[C@@]21C` [EPOXYAZADIRADIONE], the PFI is given as 50.4%.

With `CC(=O)O[C@@H]1C[C@H]2C(C)(C)C(=O)C=C[C@]2(C)[C@H]2CC[C@@]3(C)[C@H](c4ccoc4)OC(=O)[C@H]4O[C@]43[C@@]21C` [GEDUNIN], the PFI worked out at 37.3%. The figure for `CC(=O)O[C@@H]1C[C@H]2C(C)(C)CC(=O)C=C[C@]2(C)[C@H]2CC[C@]3(C)C(=CC[C@H]3c3ccoc3)[C@@]21C` [HOMOAZADIRADIONE] is 60%; for `CC(=O)O[C@@H]1[C@H](O)[C@H]2C(C)(C)C(=O)CC[C@]2(C)[C@H]2CC[C@]3(C)C(=CC[C@H]3C3=CC(O)OC3=O)[C@]12C` (stereo partly drawn) [ISOMELDENIN PP] it is 28.3%.

`CC(=O)OC1[C@H](O)[C@H]2C(C)(C)C(=O)CC[C@]2(C)[C@H]2CC[C@]3(C)C(=CC[C@H]3c3ccoc3)[C@]12C` (stereo partly drawn) [ISOMELDENIN] registered a PFI of 60.6%. For the compound `COC1=C2C(C)(C)C(=O)[C@H]3O[C@H]3[C@]2(C)[C@H]2CC[C@@]3(C)[C@H](c4ccoc4)C[C@H]4O[C@]43[C@]2(C)C1=O` [METHYL ETHER CEDRELONEEPOXIDE], the PFI turned out to be 54%. In the case of `C=C1[C@@H]2CC[C@@]3(C)[C@H](c4ccoc4)OC(=O)C[C@]13O[C@H]1CC(=O)C(C)(C)[C@H](CC(=O)OC)[C@]12C` [METHYLANGOLENSATE], the PFI is given as 65.3%. `COC(=O)C[C@H]1[C@]2(C)C3=C(C)[C@H](C4=CCOC4=O)C[C@H]3O[C@@H]2[C@H](OC(C)=O)[C@@H]2[C@]1(C)C(=O)C=C[C@@]2(C)C(=O)OC` [NIMBIN MW] displayed a PFI of 42.9%.

In turn, `COC(=O)C[C@H]1[C@]2(C)C3=C(C)[C@H](C4=CC(=O)OC4O)C[C@H]3O[C@@H]2[C@H](OC(C)=O)[C@@H]2[C@]1(C)C(=O)C=C[C@@]2(C)C(=O)OC` (stereo partly drawn) [NIMBIN PP] displayed a PFI of 19.9%.

In turn, `COC(=O)C[C@H]1[C@]2(C)C3=C(C)[C@H](C4=CC(O)OC4=O)C[C@H]3O[C@@H]2[C@H](OC(C)=O)[C@@H]2[C@]1(C)C(=O)C=C[C@@]2(C)C(=O)OC` (stereo partly drawn) [NIMBINOLIDE] returned a PFI of 26.7%. In turn, `COC(=O)C[C@H]1[C@]2(C)C3=C(C)[C@H](c4ccoc4)C[C@H]3O[C@@H]2[C@H](OC(C)=O)[C@@H]2[C@]1(C)C(=O)C=C[C@@]2(C)C(=O)OC` [NIMBIN] gave a PFI of 33.7%. Then `COC(=O)C[C@H]1[C@]2(C)C3=C(C)[C@H](c4ccoc4)C[C@H]3O[C@@H]2[C@@H]2OC(=O)[C@]3(C)C=CC(=O)[C@@]1(C)[C@@H]23` [NIMBOLIDE], with 37%; and `CC(=O)O[C@@H]1[C@H](O)[C@H]2C(C)(C)C(=O)C=C[C@]2(C)[C@H]2CC[C@]3(C)C(=CC[C@H]3C3=CCOC3=O)[C@]12C` [NIMONOL MW], with 44.2%.
